# Source: patent US10966426B2, “Herbicidal compositions comprising phenylpyrimidines” (BASF SE, priority 2016, dated 2021)
# “And” between values parts separate entries of the source, which are not always exact repeats. Identical values can stand only once.
# Experiments:
# Assay type in all cases: in vivo
# Avena fatua = assay: greenhouse pre-emergence treatment, AVEFA; settings: Table X13, 20 DAT, AVEFA
# How it was run: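 Damage rated on 0 to 100 scale (0 = normal growth, 100 = no emergence or total above-ground kill) after 2-4 weeks at species-dependent 10-25° C or 20-35° C. Seeds sown per species in loamy sand, ~3.0% humus, treated right after sowing with aqueous spray of single actives or 10% emulsion-concentrate mixtures, then hooded; additive expectation by Colby.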
# Bromus sterilis = assay: greenhouse post-emergence treatment, BROST
# How it was run: (§1)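 Pot trial in loamy sand with about 3.0% humus; plants sown in place or transplanted as seedlings a few days before treatment, kept at 10-25° C or 20-35° C by species, water as solvent. Damage scored 0 (none) to 100 (full destruction) over 2 to 4 weeks; combination expectation by Colby, E=X+Y−(X·Y/100).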
# Papaver rhoeas = assay: greenhouse post-emergence treatment, PAPRH; settings: PAPRH
# How it was run: (§2)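 Foliar application to greenhouse-grown plants 3–15 cm tall in humus-containing loamy sand; response assessed on a 0–100 scale after 2–4 weeks, with Colby's E=X+Y−(X·Y/100) as the additive expectation.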
# Setaria viridis = assay: greenhouse post-emergence treatment, SETVI; settings: SETVI
# How it was run: as §1
# Echinocloa crus-galli = assay: greenhouse post-emergence treatment, ECHCG; settings: ECHCG
# How it was run: as §2
# Matricaria chamomilla = assay: greenhouse post-emergence treatment, MATCH; settings: MATCH
# How it was run: as §2
# Brachiaria decumbens = assay: greenhouse post-emergence treatment, BRADC; settings: BRADC
# How it was run: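 Seeds sown per species in pots of loamy sand; seedlings either grown in place or transplanted days before treatment. Post-emergence spray of water-based liquor at 3–15 cm height. Injury rated 0–100 over 2 to 4 weeks.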
# [1] = Ex. 5 solo, 62.5 gai/ha, 20 DAT
# [2] = Ex. 5 solo, 62.5 gai/ha, 21 DAT
# [3] = 20 DAT, solo Ex. 5 125 gai/ha (Table X66)
structure (smiles),measurement,setting,value
O=C(O)c1nc(C2CC2)ncc1-c1ccccc1Cl [Ex. 5],% activity,Avena fatua; solo Ex. 5 62.5 gai/ha,80%
same,% activity,Avena fatua; solo Ex. 5 125 gai/ha,85%
same,"% activity, solo application","Bromus sterilis; 250 gai/ha, 20 DAT, BROST, Table X3",80%
same,% activity,"Bromus sterilis; BROST, 20 DAT, solo Ex. 5 62.5 gai/ha",35%
same,% activity,"Bromus sterilis; BROST, 20 DAT, solo Ex. 5 250 gai/ha",80%
same,% activity,"Bromus sterilis; BROST, solo Ex. 5 62.5 gai/ha, 20 DAT",30% and 53%
same,% activity,"Bromus sterilis; BROST, solo Ex. 5 125 gai/ha, 20 DAT",65% and 73%
same,% activity,"Bromus sterilis; BROST, solo Ex. 5 250 gai/ha, 20 DAT",70% and 85%
same,% activity,"Bromus sterilis; BROST, solo Ex. 5 500 gai/ha, 20 DAT",90%
same,% activity,"Bromus sterilis; solo, BROST, 125 gai/ha, 20 DAT",65%
same,% activity,"Bromus sterilis; solo, BROST, 250 gai/ha, 20 DAT",70% and 80%
same,"% activity, solo application","Papaver rhoeas; 62.5 gai/ha, 20 DAT, Table X3",20%
same,"% activity, solo application","Papaver rhoeas; 125 gai/ha, 20 DAT, Table X3",75%
same,"% activity, solo application","Papaver rhoeas; 125 gai/ha, 20 DAT, Table X4",5%
same,"% activity, solo application","Papaver rhoeas; 125 gai/ha, 20 DAT, Table X5",30%
same,% activity,Papaver rhoeas; [1],25%
same,% activity,Papaver rhoeas; [2],60%
same,% activity,"Papaver rhoeas; 20 DAT, solo Ex. 5 62.5 gai/ha",70%
same,% activity,"Papaver rhoeas; 20 DAT, solo Ex. 5 125 gai/ha",65%
same,% activity,Papaver rhoeas; [3],65%
same,% activity,"Papaver rhoeas; 21 DAT, solo Ex. 5 125 gai/ha",60%
same,% activity,"Papaver rhoeas; 21 DAT, solo Ex. 5 250 gai/ha",80%
same,% activity,"Papaver rhoeas; solo Ex. 5 62.5 gai/ha, 20 DAT",0%
same,% activity,"Papaver rhoeas; solo Ex. 5 62.5 gai/ha, 21 DAT",0%
same,% activity,"Papaver rhoeas; solo Ex. 5 125 gai/ha, 21 DAT",10%
same,% activity,"Papaver rhoeas; solo Ex. 5 250 gai/ha, 20 DAT",65%
same,% activity,"Papaver rhoeas; solo Ex. 5 250 gai/ha, 21 DAT",65%
same,% activity,"Papaver rhoeas; solo, 250 gai/ha, 20 DAT",70% and 75%
same,"% activity, solo application","Setaria viridis; 62.5 gai/ha, 20 DAT, Table X3",35%
same,"% activity, solo application","Setaria viridis; 250 gai/ha, 20 DAT, Table X3",60%
same,"% activity, solo application","Setaria viridis; 250 gai/ha, 20 DAT, Table X4",50%
same,"% activity, solo application","Setaria viridis; 250 gai/ha, 20 DAT, Table X7",60%
same,% activity,Setaria viridis; [1],55%
same,% activity,"Setaria viridis; 20 DAT, solo Ex. 5 62.5 gai/ha",30%
same,% activity,"Setaria viridis; 20 DAT, solo Ex. 5 125 gai/ha",40%
same,% activity,"Setaria viridis; 21 DAT, solo Ex. 5 125 gai/ha",70%
same,% activity,"Setaria viridis; solo Ex. 5 62.5 gai/ha, 20 DAT",35% and 30% and 48%
same,% activity,"Setaria viridis; solo Ex. 5 62.5 gai/ha, 21 DAT",35%
same,% activity,"Setaria viridis; solo Ex. 5 250 gai/ha, 20 DAT",65%
same,% activity,"Setaria viridis; Table X8, 20 DAT, solo Ex. 5 125 gai/ha",30%
same,% activity,"Setaria viridis; Table X8, 20 DAT, solo Ex. 5 250 gai/ha",30%
same,% activity,"Setaria viridis; solo, 62.5 gai/ha, 20 DAT",20% and 35%
same,% activity,"Setaria viridis; solo, 125 gai/ha, 20 DAT",40%
same,% activity,"Setaria viridis; solo, 250 gai/ha, 20 DAT",50%
same,"% activity, solo application","Echinocloa crus-galli; 62.5 gai/ha, 20 DAT, Table X3",65%
same,% activity,"Echinocloa crus-galli; solo Ex. 5 125 gai/ha, 21 DAT",65%
same,% activity,"Echinocloa crus-galli; solo Ex. 5 250 gai/ha, 21 DAT",65%
same,% activity,"Echinocloa crus-galli; Table X12, 20 DAT, solo Ex. 5 125 gai/ha",65%
same,"% activity, solo application","Matricaria chamomilla; 62.5 gai/ha, 20 DAT, Table X3",30%
same,"% activity, solo application","Matricaria chamomilla; 125 gai/ha, 20 DAT, Table X3",30%
same,"% activity, solo application","Matricaria chamomilla; 125 gai/ha, 20 DAT, Table X4",40%
same,"% activity, solo application","Matricaria chamomilla; 125 gai/ha, 20 DAT, Table X5",10%
same,"% activity, solo application","Matricaria chamomilla; 125 gai/ha, 20 DAT, Table X7",30%
same,"% activity, solo application","Matricaria chamomilla; 250 gai/ha, 20 DAT, Table X3",70%
same,"% activity, solo application","Matricaria chamomilla; 250 gai/ha, 20 DAT, Table X4",40%
same,"% activity, solo application","Matricaria chamomilla; 250 gai/ha, 20 DAT, Table X5",10%
same,% activity,Matricaria chamomilla; [1],40%
same,% activity,Matricaria chamomilla; [2],30%
same,% activity,"Matricaria chamomilla; Ex. 5 solo, 125 gai/ha, 21 DAT",30%
same,% activity,"Matricaria chamomilla; Ex. 5 solo, 250 gai/ha, 21 DAT",60%
same,% activity,"Matricaria chamomilla; 20 DAT, solo Ex. 5 125 gai/ha",40%
same,% activity,"Matricaria chamomilla; 20 DAT, solo Ex. 5 250 gai/ha",30%
same,% activity,"Matricaria chamomilla; 20 DAT, solo Ex. 5 250 gai/ha (Table X66)",30%
same,% activity,"Matricaria chamomilla; 21 DAT, solo Ex. 5 125 gai/ha",30%
same,% activity,"Matricaria chamomilla; solo Ex. 5 62.5 gai/ha, 20 DAT",10% and 0%
same,% activity,"Matricaria chamomilla; solo Ex. 5 250 gai/ha, 21 DAT",30%
same,% activity,"Matricaria chamomilla; solo, 62.5 gai/ha, 20 DAT",20%
same,% activity,"Matricaria chamomilla; solo, 125 gai/ha, 20 DAT",40% and 20%
same,% activity,"Matricaria chamomilla; solo, 250 gai/ha, 20 DAT",40% and 45%
same,"% activity, solo application","Brachiaria decumbens; 125 gai/ha, 20 DAT, Table X5",50%
same,"% activity, solo application","Brachiaria decumbens; 125 gai/ha, 20 DAT, Table X7",65%
same,"% activity, solo application","Brachiaria decumbens; 250 gai/ha, 20 DAT, Table X3",60%
same,% activity,"Brachiaria decumbens; 20 DAT, solo Ex. 5 62.5 gai/ha",35%
same,% activity,"Brachiaria decumbens; 20 DAT, solo Ex. 5 125 gai/ha",40%
same,% activity,Brachiaria decumbens; [3],40%
same,% activity,"Brachiaria decumbens; 20 DAT, solo Ex. 5 250 gai/ha",60%
same,% activity,"Brachiaria decumbens; 21 DAT, solo Ex. 5 125 gai/ha",60%
same,% activity,"Brachiaria decumbens; 21 DAT, solo Ex. 5 250 gai/ha",70%
same,% activity,"Brachiaria decumbens; solo Ex. 5 62.5 gai/ha, 20 DAT",30% and 45%
same,% activity,"Brachiaria decumbens; solo Ex. 5 125 gai/ha, 20 DAT",50%
same,% activity,"Brachiaria decumbens; solo Ex. 5 250 gai/ha, 20 DAT",60%
same,% activity,"Brachiaria decumbens; solo, 62.5 gai/ha, 20 DAT",45%
same,% activity,"Brachiaria decumbens; solo, 250 gai/ha, 20 DAT",60%
